{"source": "patent US10441566B2", "about": "“Use of butylidenephthalide” (EVERFRONT BIOTECH INC., priority 2016, dated 2019)", "format_in_all_cases": "cell-based", "key": {"[1]": {"test_system": "ZEB1 gene", "assay": "Q-PCR expression of EMT marker gene ZEB1 in fBMFs", "conditions": "fBMF-1 and fBMF-2, BP 0, 25, or 50 μg/mL, 48 hours, with the increment in concentration, FIG. 2", "source_text": "(§1) Two groups of buccal mucosal fibroblasts obtained from normal oral buccal mucosa (hereinafter abbreviated as “BMF-1” and “BMF-2”; or collectively called “BMFs”), and two groups of fibrotic buccal mucosal fibroblasts obtained from fibrotic oral buccal mucosa (hereinafter abbreviated as “fBMF-1” and “fBMF-2”; or collectively called “fBMFs”) were respectively subjected to the following procedures: seeding the cells into a 24-well plate by a concentration of 2×10^4 cells/well to cultivate the cells to reach a 80% confluence, and then respectively treating the cells with different concentrations (0, 12.5, 25, 50, 100, or 200 μg/mL) of butylidenephthalide (BP) for 48 hours. […]\n(§2) It is known that during the process of epithelial-mesenchymal transition (EMT), the expressions of Twist gene, Snail gene, and ZEB1 gene in the cells will increase, and thus, these genes are known as the marker genes of EMT. In this experiment, quantitative real-time polymerase chain reaction (Q-PCR) was conducted to investigate whether butylidenephthalide (BP) can affect the expressions of Twist gene, Snail gene, and ZEB1 gene in oral submucosal tissue cells. […]"}, "[2]": {"test_system": "Twist gene", "assay": "Q-PCR expression of EMT marker gene Twist in fBMFs", "conditions": "fBMF-1 and fBMF-2, BP 0, 25, or 50 μg/mL, 48 hours, with the increment in concentration, FIG. 2", "source_text": "as §1, §2"}, "[3]": {"test_system": "fibrotic buccal mucosal fibroblasts (fBMFs)", "assay": "Collagen gel contraction assay", "conditions": "fBMFs in collagen gel, BP 0, 25, or 50 μg/mL, 48 hours, with the increment in concentration, FIGS. 5A and 5B", "experimental": "The BMF-1, BMF-2, fBMF-1, and fBMF-2 provided by [Preparation example A] were respectively dissolved in 0.5 mL of 2 mg/mL collagen solution (purchased from Sigma-Aldrich), and the mixtures thus obtained were moved into a 24-well plate. Then, the 24-well plate was placed in an incubator at […] and 5% CO2 for 2 hours to coagulate the collagen gels. The gels thus obtained were respectively called “BMFs group”, and “fBMFs group” gels. Thereafter, the coagulated gels were disengaged from the culture plate, and 0.5 mL of a medium containing different concentrations (0, 25, or 50 μg/mL) of butylidenephthalide (BP) was added thereinto to incubate with the gels for 48 hours. The contraction of gel in each group were observed and photographed. Finally, the relative gel area (%) of each “fBMFs group” was calculated by using the image-analyzed software, ImageJ (National Institutes of Health, USA) and using the results of “BMFs group” not being treated with butylidenephthalide (BP) as a basis."}, "[4]": {"test_system": "fibrotic buccal mucosal fibroblasts (fBMFs)", "assay": "Transwell cell migration assay", "conditions": "BP 0, 25, or 50 μg/mL, 24 hours migration, FIGS. 3A and 3B", "experimental": "In this experiment, a transwell cell migration assay system (Transwell® system; purchased from Corning company, UK) and a polycarbonate membrane with a pore size of 8 μm (purchased from Corning company, UK) were used to further investigate whether butylidenephthalide (BP) can inhibit the abilities of oral submucosal tissue cells to crawl and invade.\nFirst, the cell medium containing 10% FBS (fetal bovine serum) was added into the lower chamber, and an apparatus of polycarbonate membrane was placed on the bottom of a cell culture plate, i.e., upper chamber. On the other hand, the BMF-1, BMF-2, fBMF-1, and fBMF-2 provided by [Preparation example A] (2×10^4 cells/group) were evenly mixed with a 250 μL serum-free medium that is externally added with butylidenephthalide (BP) by a concentration of 0, 25, or 50 μg/mL. Then, the mixtures thus obtained were respectively added into the upper chambers. Thereafter, the whole transwell cell migration assay system was placed in an incubator to induce cell migration for 24 hours. […] Then, the polycarbonate membrane were fixed with 4% paraformaldehyde for 10 minutes and stained with 0.1% crystal violet. […] The cell numbers on the membrane were calculated into the relative cell migration ability (%) by using the results of BMFs not treated with butylidenephthalide (BP) as a basis."}, "[5]": {"test_system": "α-SMA gene", "assay": "Q-PCR expression of myofibroblast marker gene α-SMA in fBMFs", "conditions": "fBMF-1 and fBMF-2, BP 0, 25, or 50 μg/mL, 48 hours, with the increment in concentration, FIG. 4", "source_text": "as §1\n(§3) It is known that during the process of the fibrosis of tissue, the tissue cells would differentiate and become myofibroblasts, wherein the α-SMA gene, Col1a1 gene, and S100A4 gene are the maker genes of myofibroblasts. Thus, in this experiment, a quantitative real-time polymerase chain reaction (Q-PCR) was conducted to investigate whether butylidenephthalide (BP) can inhibit the expressions of α-SMA gene, Col1a1 gene, and S100A4 gene in oral submucosal tissue cells. […]"}, "[6]": {"test_system": "S100A4 gene", "assay": "Q-PCR expression of myofibroblast marker gene S100A4 in fBMFs", "conditions": "fBMF-1 and fBMF-2, BP 0, 25, or 50 μg/mL, 48 hours, with the increment in concentration, FIG. 4", "source_text": "as §1, §3"}, "[7]": {"test_system": "fibrotic buccal mucosal fibroblasts (fBMFs; fBMF-1, fBMF-2)", "assay": "MTT cytotoxicity evaluation, relative viability of fibrotic buccal mucosal fibroblasts", "conditions": "BP at a concentration of no more than 50 μg/mL, 48 hours, FIG. 1", "source_text": "as §1"}, "[8]": {"test_system": "Col1a1 gene", "assay": "Q-PCR expression of myofibroblast marker gene Col1a1 in fBMFs", "conditions": "fBMF-1 and fBMF-2, BP 0, 25, or 50 μg/mL, 48 hours, with the increment in concentration, FIG. 4", "source_text": "as §1, §3"}, "[9]": {"test_system": "Snail gene", "assay": "Q-PCR expression of EMT marker gene Snail in fBMFs", "conditions": "fBMF-1 and fBMF-2, BP 0, 25, or 50 μg/mL, 48 hours, with the increment in concentration, FIG. 2", "source_text": "as §1, §2"}, "[10]": {"test_system": "buccal mucosal fibroblasts (BMFs; BMF-1, BMF-2)", "assay": "MTT cytotoxicity evaluation, relative viability of buccal mucosal fibroblasts", "conditions": "BP at a concentration of no more than 50 μg/mL, 48 hours, FIG. 1", "source_text": "as §1"}}}
{"smiles": "CCCC=C1OC(=O)c2ccccc21", "note": "[butylidenephthalide]", "values": [{"measurement": "expression of ZEB1 gene", "setting": "[1]", "value": "significantly decreased"}, {"measurement": "expression of Twist gene", "setting": "[2]", "value": "significantly decreased"}, {"measurement": "gel contraction (relative gel area)", "setting": "[3]", "value": "significantly mitigate"}, {"measurement": "cells which migrated from the upper chamber to the lower chamber (relative migration ability)", "setting": "[4]", "value": "decrease with the increment in the concentration"}, {"measurement": "expression of α-SMA gene", "setting": "[5]", "value": "significantly decreased"}, {"measurement": "expression of S100A4 gene", "setting": "[6]", "value": "significantly decreased"}, {"measurement": "growth (relative viability) of fBMFs", "setting": "[7]", "value": "will not be affected"}, {"measurement": "expression of Col1a1 gene", "setting": "[8]", "value": "significantly decreased"}, {"measurement": "expression of Snail gene", "setting": "[9]", "value": "significantly decreased"}, {"measurement": "growth (relative viability) of BMFs", "setting": "[10]", "value": "will not be affected"}]}
